Laboratory results reported in ChEMBL document CHEMBL5120764, “Isarubrolone C Promotes Autophagic Degradation of Virus Proteins via Activating ATG10S in HepG2 Cells” (J Nat Prod, 2022).
Active and inactive are the calls of the source.

Tests used:
Format in all cases: functional, cell-based
HepG2 [1] = assay: Upregulation of endogenous ATG10S activated co-localisation of HIV-RT with LC3B in human HepG2 cells co-transfected with HIV-RT and ATG10-misMO by cellular immunofluorescence assay
HepG2 [2] = assay: Downregulation of HIV-RT in human HepG2 cells co-transfected with HIV-RT and ATG10-misMO upto 10 uM incubated for 24 hrs by western blot analysis
HepG2 [3] = assay: Upregulation of ATG10/ATG10S mRNA level in human HepG2 cells transfected with HIV-RT upto 10 uM by RT-PCR analysis; conditions: DDE = dose-dependent effect
HepG2 [4] = assay: Upregulation of ZIKV-NS5 in human HepG2 cells transfected with ZIKV-NS5 and gene knockdown by IL28A morpholinos at 10 uM incubated for 24 hrs by western blot analysis
HepG2 [5] = assay: Induction of autophagy in human HepG2 cells transfected with ZIKV-NS5 assessed as increase in ZIKV-NS5-P62 interaction level at 10 uM incubated for 24 hrs in presence of anti-Flag antibodies by co-immunoprecipitation assay
HepG2 [6] = assay: Upregulation of endogenous ATG10S activated co-localisation of HIV-RT with LAMP2 in human HepG2 cells co-transfected with HIV-RT and ATG10-misMO by cellular immunofluorescence assay
HepG2 [7] = assay: Upregulation of ATG10/ATG10S mRNA level in human HepG2 cells transfected with HCV sub-replicon upto 10 uM by RT-PCR analysis; conditions: DDE = dose-dependent effect
HepG2 [8] = assay: Induction of autophagy in human HepG2 cells transfected with HCV subgenomic replicon assessed as HCV-NS5B/P62 combination at 10 uM incubated for 24 hrs in presence of anti-LAMP2 antibodies by co-immunoprecipitation assay
HepG2 [9] = assay: Upregulation of IL28A mRNA expression level in human HepG2 cells transfected with HCV sub-replicon upto 10 uM by qRT-PCR analysis; conditions: DDE = dose-dependent effect
HepG2 [10] = assay: Induction of autophagy in human HepG2 cells transfected with HCV subgenomic replicon assessed as HCV-CORE/P62 combination at 10 uM incubated for 24 hrs in presence of anti-LAMP2 antibodies by co-immunoprecipitation assay
HepG2 [11] = assay: Downregulation of HCV-CORE in human HepG2 cells transfected with HCV-subreplicon upto 10 uM incubated for 24 hrs by western blot analysis
HepG2 [12] = assay: Induction of autophagy in human HepG2 cells transfected with HIV-RT assessed as increase in HIV-RT-LAMP2 interaction level at 10 uM incubated for 24 hrs in presence of anti-Flag antibodies by co-immunoprecipitation assay
HepG2 [13] = assay: Upregulation of P62 in human HepG2 cells transfected with ZIKV-NS5 and gene knockdown by IL28A morpholinos at 10 uM incubated for 24 hrs by western blot analysis
HepG2 [14] = assay: Induction of autophagy in human HepG2 cells transfected with HCV subgenomic replicon assessed as HCV-NS5B/LAMP2 combination at 10 uM incubated for 24 hrs in presence of anti-LC3B antibodies by co-immunoprecipitation assay
HepG2 [15] = assay: Upregulation of endogenous ATG10S activated co-localisation of HBx with LC3B in human HepG2 cells co-transfected with HBx and ATG10-misMO by cellular immunofluorescence assay
HepG2 [16] = assay: Upregulation of endogenous ATG10S activated co-localisation of HBx with LAMP2 in human HepG2 cells co-transfected with HBx and ATG10-misMO by cellular immunofluorescence assay
HepG2 [17] = assay: Induction of autophagy in human HepG2 cells transfected with HIV-RT assessed as decrease in HIV-RT protein level upto 10 uM and measured after 6 hrs by western blot analysis; conditions: DDE = dose-dependent effect
HepG2 [18] = assay: Downregulation of HBVx in human HepG2 cells co-transfected with HBVx and ATG10-misMO upto 10 uM incubated for 24 hrs by western blot analysis
HepG2 [19] = assay: Induction of autophagy in human HepG2 cells transfected with HIV-RT and gene knockdown by IL28A morpholinos assessed as LC3B and LAMP2 interaction at 10 uM incubated for 24 hrs in presence of anti-LC3B antibodies by co-immunoprecipitation assay
HepG2 [20] = assay: Upregulation of endogenous ATG10S activated co-localisation of HBx with LC3B in human HepG2 cells co-transfected with HBx and ATG10-sMO by cellular immunofluorescence assay
HepG2 [21] = assay: Induction of autophagy in human HepG2 cells transfected with HIV-RT assessed as increase in HIV-RT-P62 interaction level at 10 uM incubated for 24 hrs in presence of anti-Flag antibodies by co-immunoprecipitation assay
HepG2 [22] = assay: Upregulation of IL28A mRNA expression level in human HepG2 cells transfected with ZIKV-NS5 upto 10 uM by qRT-PCR analysis; conditions: DDE = dose-dependent effect
HepG2 [23] = assay: Induction of autophagy in human HepG2 cells transfected with HCV subgenomic replicon assessed as HCV-CORE/ATG10/ATG10S combination at 10 uM incubated for 24 hrs in presence of anti-LAMP2 antibodies by co-immunoprecipitation assay
HepG2 [24] = assay: Induction of autophagy in human HepG2 cells transfected with ZIKV-NS5 assessed as increase in ZIKV-NS5-LC3B interaction level at 10 uM incubated for 24 hrs in presence of anti-Flag antibodies by co-immunoprecipitation assay
HepG2 [25] = assay: Downregulation of ZIKV-NS5 in human HepG2 cells co-transfected with ZIKV-NS5 and ATG10-misMO upto 10 uM incubated for 24 hrs by western blot analysis
HepG2 [26] = assay: Effect on HCV-NS5B degradation in human HepG2 cells transfected with HCV sub-replicon at 10 uM pretreated with proteosome inhibitor MG132 for 12 hrs followed by compound addition and measured after 24 hrs by western blot analysis
HepG2 [27] = assay: Induction of autophagy in human HepG2 cells transfected with ZIKV-NS5 and gene knockdown by IL28A morpholinos assessed as LC3B and LAMP2 interaction at 10 uM incubated for 24 hrs in presence of anti-LC3B antibodies by co-immunoprecipitation assay
HepG2 [28] = assay: Downregulation of HCV-NS5B in human HepG2 cells transfected with HCV-subreplicon upto 10 uM incubated for 24 hrs by western blot analysis
HepG2 [29] = assay: Induction of autophagy in human HepG2 cells transfected with HCV subgenomic replicon assessed as HCV-NS5B/LAMP2 combination at 10 uM incubated for 24 hrs in presence of anti-LAMP2 antibodies by co-immunoprecipitation assay
HepG2 [30] = assay: Effect on HIV-RT degradation in human HepG2 cells transfected with HIV-RT at 10 uM pretreated with proteosome inhibitor MG132 for 12 hrs followed by compound addition and measured after 24 hrs by western blot analysis
HepG2 [31] = assay: Effect on HCV-CORE degradation in human HepG2 cells transfected with HCV sub-replicon at 10 uM pretreated with proteosome inhibitor MG132 for 12 hrs followed by compound addition and measured after 24 hrs by western blot analysis
HepG2 [32] = assay: Upregulation of P62 in human HepG2 cells transfected with HIV-RT and gene knockdown by IL28A morpholinos at 10 uM incubated for 24 hrs by western blot analysis

Measured: Activity

CC[C@@H](O)c1nc(C)cc2c1C(=O)c1cc(=O)c3c(c(O)c1-2)O[C@@H]1O[C@H](C)[C@@H](OC)[C@@H](O)[C@]31O
active: HepG2 [1] | HepG2 [2] | HepG2 [3] Dde | HepG2 [4] | HepG2 [5] | HepG2 [6] | HepG2 [7] Dde | HepG2 [8] | HepG2 [9] Dde | HepG2 [10] | HepG2 [11] | HepG2 [12] | HepG2 [13] | HepG2 [14] | HepG2 [15] | HepG2 [16] | HepG2 [17] Dde | HepG2 [18] | HepG2 [19] | HepG2 [20] | HepG2 [21] | HepG2 [22] Dde | HepG2 [23] | HepG2 [24] | HepG2 [25] | HepG2 [26] | HepG2 [27] | HepG2 [28] | HepG2 [29] | HepG2 [30] | HepG2 [31] | HepG2 [32]
